Results published in patent US5773423A (priority 1994, dated 1998).
Entries after “also recorded” stand apart in the source; their conditions may differ. Read-outs that look alike come from different tables or passages of the source.

How the values were obtained:
[1] = test system: electroconvulsive shock in mice; format: in vivo
[2] = test system: injection-induced anxiety in mice; experiment: Anxiolytic effect in C57BL/J mice (responses to handling); format: in vivo, mouse (C57BL/J); settings: chronic, 100 μg/kg
[3] = Rectal temperature of mice under light halothane anesthesia; settings: 100 μg/kg acute (15 min) or chronic (24 h after last injection)
[4] = test system: spontaneous seizures in gerbils; experiment: Spontaneous seizures in gerbils on immersion in water maze; format: in vivo, gerbil
Procedure: During the studies of behavioural responses of gerbils to adenosine receptor stimulation, animals were exposed to the water maze model of spatial learning and memory. The control group (n=15) was injected with the vehicle given i.p. for 6 weeks prior to water maze tests. Twenty-four hours after the last injection, animals were exposed to the swim task. Immersion of animals in the swim tank whose water was kept at 32° C. produced an immediate, long-lasting (up to 2 min) seizure complex that was presented as myoclonic convulsions, followed by a period of rigidity and hind-limb extension.

[5] = test system: phospholipase C; settings: acute administration; 'it is known'; cited from earlier work
[6] = test system: spatial memory in gerbils; experiment: Learning and memory in gerbils (Morris water maze) and open field; format: in vivo, gerbil; settings: chronic
[7] = Basal or systemic blood pressure (chronic use, malignant hypotension); format: in vivo
[8] = target: T1, adenosine uptake sites in rat brain membranes (Rattus norvegicus, UniProt O54698); experiment: Competition for [3H]NBTI binding at adenosine uptake sites in rat striatal membranes; settings: read-out: Ki (NBTI); 0.3 nM [3H]NBTI, 30 min at 23° C., pH 7.4
T1 sequence (O54698 1-457): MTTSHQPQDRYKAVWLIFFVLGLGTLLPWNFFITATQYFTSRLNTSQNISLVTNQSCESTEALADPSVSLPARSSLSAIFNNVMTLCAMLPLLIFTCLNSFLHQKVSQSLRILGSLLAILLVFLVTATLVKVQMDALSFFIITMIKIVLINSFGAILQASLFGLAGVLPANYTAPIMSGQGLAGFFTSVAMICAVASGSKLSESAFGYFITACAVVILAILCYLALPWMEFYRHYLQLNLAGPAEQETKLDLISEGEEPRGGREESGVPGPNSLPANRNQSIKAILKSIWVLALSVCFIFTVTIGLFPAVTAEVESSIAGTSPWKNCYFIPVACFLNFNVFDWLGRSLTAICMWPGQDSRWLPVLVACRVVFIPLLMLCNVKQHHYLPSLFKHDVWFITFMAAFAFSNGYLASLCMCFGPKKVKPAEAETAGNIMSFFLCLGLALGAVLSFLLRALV

[9] = test system: NMDA-evoked seizures in mice; format: in vivo
[10] = test system: locomotor activity in mice; experiment: Locomotor activity in mice (open field, Digiscan activity monitor); format: in vivo, mouse (NIH Swiss)
[11] = test system: cardiovascular parameters in rats; format: in vivo, rat
Procedure: Rats (each weighing 300-340 g) were lightly anesthetized using 1.5-2% halothane. They were monitored for heart rate with a tail sensor and blood pressure using the tail cuff method. Peripheral blood flow (scalp) was monitored using a Perimed laser Doppler blood flow apparatus, with a narrow diameter probe placed in contact with the shaved skin above the center of the cranium. A small amount of clear gel was applied to maintain uniform transmission of light. Body temperature was measured using a rectal probe. Respiratory rate was also recorded. Measurements were made at regular intervals: every 2 min for the first ten min period, and every five min thereafter, until 30 min, at which time a 30 min interval was used, until 90 min. […] Drugs were dissolved in a vehicle consisting of an 80:20 mixture of Alkamuls EL-620 and saline, pH 7.4. […] When administered alone, the agonist was given at the beginning of the monitoring period. When coadministered with an antagonist, the antagonist was given at the beginning of the monitoring period, and the agonist was given after 10 min.

[12] = test system: forebrain ischemia in gerbils; experiment: Forebrain ischemia in gerbils (bilateral carotid occlusion); format: in vivo, Mongolian gerbil
Procedure: Ischemia was effected by bilateral occlusion of the carotid arteries. Control gerbils were injected with saline (0.15 ml, i.p. for 10 days). During postischemic recovery, the rate of cerebral blood flow return to pre-ischemia level, neurological status, and survival were monitored. After 7 days, all surviving animals were perfused with formaldehyde for further studies of morphology and histochemistry.

[13] = test system: pentamethylenetetrazole-induced convulsions in mice; format: in vivo
[14] = target: T1, adenosine uptake sites in rat brain membranes; design: Rat striatal membranes, prepared as above; from tissue; host or cells: rat striatal membranes; settings: read-out: Kd value used for [3H]NBTI Ki calculation; cited from earlier work
[15] = acute IB-MECA 10 μg/kg + NMDA 60 mg/kg, NS
[16] = acute IB-MECA 50 μg/kg + NMDA 60 mg/kg, NS
[17] = acute IB-MECA 100 μg/kg + NMDA 60 mg/kg
[18] = acute IB-MECA 100 μg/kg + NMDA 60 mg/kg, P<0.05
[19] = chronic IB-MECA 100 μg/kg + NMDA 60 mg/kg, P<0.05
[20] = acute, 15 min prior to 10 min ischemia
[21] = chronic 10 days, 10 min ischemia
[22] = acute IB-MECA 100 μg/kg + PMT 75 mg/kg
[23] = acute IB-MECA 100 μg/kg + PMT 75 mg/kg, P<0.05
[24] = chronic IB-MECA 100 μg/kg + PMT 75 mg/kg
[25] = chronic IB-MECA 100 μg/kg + PMT 75 mg/kg, P<0.05

## CNC(=O)[C@H]1O[C@@H](n2cnc3c(NCc4cccc(I)c4)ncnc32)[C@H](O)[C@@H]1O [Compound 42, N^6-(3-iodobenzyl)adenosine-5'-N-methyluronamide]
[1]; acute IB-MECA
  electroshock threshold voltage (in words): insignificant increase of threshold voltage
[1]; acute IB-MECA 100 μg/kg + E.S.
  % Mortality at 24 h: 70%
  Threshold voltage: 106 + 10
[1]; chronic IB-MECA
  electroshock threshold voltage / postictal mortality (in words): no significant changes in threshold voltage; also recorded: postictal mortality was significantly reduced
[1]; chronic IB-MECA 100 μg/kg + E.S.
  Threshold voltage: 118 + 13
[1]; chronic IB-MECA 100 μg/kg + E.S., p<0.05
  % Mortality at 24 h: 30%
[2]
  injection-induced anxiety or stress responses (in words): almost no injection-induced anxiety or stress behavioral responses
[3]
  rectal temperature (in words): no significant temperature differences
[4]; acute
  seizing activity (in words): worsen the seizing activity
[4]; chronic, 100 μg/kg i.p. daily for 6 wks
  seizing activity during swim task (in words): entirely eliminated seizing activity
[5]
  stimulation of phospholipase C and inositol 1,4,5-triphosphate production (in words): stimulation of phospholipase C and an enhanced production of inositol 1,4,5-triphosphate
[6]
  locomotor behavior in open field (in words): did not show any significant differences in locomotor behavior
[6]; 100 μg/kg daily for 2 months, p<0.04 vs controls 40 sec
  average time to target: 30 s
[7]; from about 70 mm Hg
  basal or systemic blood pressure after administration: about 90 mm Hg
[7]; in vivo
  increase in basal or systemic blood pressure: 10-30%
[8]
  Ki: 28.2 µM
[9]; acute IB-MECA 10 μg/kg + NMDA 60 mg/kg
  incidence of seizures or degree of neurological impairment (in words): no effect on either the incidence of seizures, or the degree of neurological impairment
[9]; [15]
  % Convulsing: 50%
  % Mortality at 24 h: 50%
  Impairment (scale 1-6): 2.7 + 0.6
[9]; acute IB-MECA 10 μg/kg + NMDA 60 mg/kg, P<0.05
  Ave. Latency to Seizures: 581 + 107 sec
[9]; [16]
  % Mortality at 24 h: 27%
  Impairment (scale 1-6): 2.0 + 0.5
[9]; acute IB-MECA 50 μg/kg + NMDA 60 mg/kg, P<0.05
  % Convulsing: 10%
[9]; acute IB-MECA 50 μg/kg + NMDA 60 mg/kg, only one animal
  Ave. Latency to Seizures: 12 s
[9]; [17]
  % Convulsing: 0%
  clinically manifested seizures (in words): completely absent
  duration of lethargic behaviour: 45 to 60 min
[9]; [18]
  % Mortality at 24 h: 10%
  Impairment (scale 1-6): 1.4 + 0.4
[9]; chronic IB-MECA 100 μg/kg + NMDA 60 mg/kg
  animals with tonic seizures: 20%
[9]; [19]
  % Convulsing: 30%
  Ave. Latency to Seizures: 689 + 108 sec
  Impairment (scale 1-6): 1.8 + 0.4
[10]; APEC 16 μg/kg, 3-IB-MECA 100 μg/kg i.p.
  reduction in locomotor activity at chosen dose: ca. 50%
[10]; Mus musculus, ip, read-out: threshold dose for locomotor depression
  minimal effective dose: 0.01 mg/kg
[10]; i.p.
  dose of maximal locomotor depression: about 0.1 mg/kg
  scratching behavior (in words): rapid scratching behavior
[10]; i.p., listed as 3-IB-MECA
  locomotor measures (in words): Vertical activity, stereotype counts, and rotational movement were depressed in a dose-dependent manner; also recorded: average distance per move and average speed were not changed significantly
[10]; total distance traveled, higher doses
  plateau of locomotor depression below control level: ca. 60%
[11]; 0.1 mg/kg
  duration of hypotensive effect: 90 min
[11]; 0.1 mg/kg i.p.
  blood flow and respiratory rates (in words): not significant
  blood pressure (in words): lowering of the blood pressure
  heart rate (in words): little effect on heart rate
[11]; 0.1 mg/kg i.p., after about 30 min post-injection
  drop in body temperature: approximately 0.5 °C
[11]; 0.1 mg/kg, post-injection
  onset of hypotensive effect: ≤ 2 min
[12]; acute (15 min) or chronic (10 days), 100 μg/kg, listed as IB-MECA
  postischemic effect (in words): impairment of postischemic cortical blood flow rate, increased mortality rate, and extensive neuronal destruction in the hippocampus; also recorded: improved post-ischemic blood reflow, increased survival
[12]; acute (15 min), 10 min ischemia, 100 μg/kg
  surviving hippocampal neurons: about 30%
[12]; acute, 100 μg/kg i.p. 15 min prior to 10 min ischemia
  survival for 7 days: Ten percent
[12]; acute, 10 min ischemia
  animals with irreversible coma: 40%
  animals with seizures: 60%
[12]; [20]
  mortality within 12 hr post-ischemia: 90%
  time to full recovery of post-ischemic blood flow: over 3.5 hr
[12]; acute, repeated experiment, FIG. 6, p<0.01
  end-point mortality: 90%
[12]; acutely and chronically treated
  neurological side effects without ischemia (in words): No neurological side effects were observed
[12]; [21]
  animals with mild hyperactivity: 40%
  survival for 7 days (in words): All those gerbils
  time to full recovery of post-ischemic blood flow: about 90 min
[12]; chronic 10 days, 20 min ischemia
  survival for 7 days: 90%
[12]; chronic (10 days), 10 min ischemia, 100 μg/kg
  surviving hippocampal neurons: > 80%
[12]; chronic, repeated experiment, FIG. 6, p<0.01
  survival: 90%
[13]; acute IB-MECA
  onset of seizures and overall mortality after PMT (in words): significantly reduced
[13]; [22]
  Impairment: 4.1 + 0.5
  Mortality 0.4-5 h: 0%
  Mortality <15 min: 40%
  Mortality >5 h: 10%
[13]; [23]
  Mortality Overall: 50%
  Onset of convulsive behavior: 112 s
[13]; [24]
  Mortality 0.4-5 h: 10%
  Mortality <15 min: 40%
  Mortality >5 h: 0%
  Onset of convulsive behavior: 120 s
[13]; [25]
  Impairment: 3.3 + 0.5
  Mortality Overall: 50%
[13]; chronic IB-MECA + PMT 75 mg/kg
  onset of seizures or neurological impairment after PMT (in words): no significant effect on either the onset of seizures or neurological impairment

## O=[N+]([O-])c1ccc(CSc2ncnc3c2ncn3[C@@H]2O[C@H](CO)[C@@H](O)[C@H]2O)cc1 [[^3 H]NBTI]
[14]
  Kd: 0.00015 µM
